PMC7698783, “Performance of Population Pharmacokinetic Models in Predicting Polymyxin B Exposures” (Microorganisms, 2020)
Several values for one entry are separate records, joined by “and”; a condition that tells them apart may be missing. Equal entries are not always repeated. Positions of bridges follow the written chain, without caps; N, C: chain ends. Non-standard residues stand in square brackets, D forms with d. Residues, ends and D or L forms follow the SMILES beside them. *: point of attachment. X1 = CC[C@H](C)CCCCC(=O)*; Dab = NCC[C@H](N)C(=O)O

Experiments:
[1] = Steady-state plasma pharmacokinetics of intravenous polymyxin B in adult patients (LC-MS/MS, ADAPT 5 compartment fitting); type: in vivo; settings: human, one-compartment model, 13 adult patients, i.v. every 12 h, median, read-out: best-fit elimination half-life (median) (converted)
Protocol: This was a prospective observational study. The study was conducted from March 2016 to March 2018 at two major teaching hospitals in Singapore: Tan Tock Seng Hospital (TTSH) and Singapore General Hospital (SGH). Adult patients (21 years of age or greater) who received intravenous polymyxin B (USP) for the treatment of suspected or confirmed bacterial infections were enrolled. The dose, dosing interval, and infusion duration of polymyxin B administration were as prescribed by the respective attending medical teams. Patients who were pregnant, on dialysis, with burns or spinal cord injury were excluded.
For each subject, four blood samples were obtained serially over one dosing interval at steady state (presumably after the third day of therapy). Since the dosing regimens were not standardized, a sampling scheme spanning the samples over the dosing interval was adopted to accommodate different scenarios. Sample 1 was obtained within 0.5 h prior to the next scheduled dose, sample 2 was obtained 0.5–1 h after the end of drug administration, sample 3 was obtained 3–8 h after the end of drug administration, and sample 4 was obtained within 4 h prior to the next scheduled dose. All samples were specifically timed in relation to drug administration. […] Polymyxin B concentrations in plasma samples were determined using a validated liquid chromatography tandem mass spectrometry method. […]

[2] = 3 population PK studies, no demographic variables linked to total clearance; cited from earlier work
Description: In contrast, body weight was linked to total clearance in a study using a two-compartment model. Finally, creatinine clearance had been linked to total clearance of polymyxin B in cystic fibrosis patients. || There were several limitations in our study. Only a limited number of (primarily male) patients were enrolled with standard clinical dosing and dosing frequency. The robustness of our conclusion would be enhanced with a larger sample size and a wider range of dosing regimens. Also, the observed AUC values for comparison were based only 4 data points over a single dosing interval.

CC[C@H](C)CCCCC(=O)N[C@@H](CCN)C(=O)N[C@H](C(=O)N[C@@H](CCN)C(=O)N[C@H]1CCNC(=O)[C@H]([C@@H](C)O)NC(=O)[C@H](CCN)NC(=O)[C@H](CCN)NC(=O)[C@H](CC(C)C)NC(=O)[C@@H](Cc2ccccc2)NC(=O)[C@H](CCN)NC1=O)[C@@H](C)O [polymyxin B] (X1-[Dab]T[Dab][Dab][Dab][dF]L[Dab][Dab]T; lactam 4-C)
half-life [1]: 6.8 h | estimates of clearance (total clearance) in population pharmacokinetic studies [2]: 2.4 L/h and 2.5 L/h and 2.6 L/h
